In general, EC50 refers to the concentration giving half of the maximal effect.

The values that follow come from US20100029654A1, “CARDIOVASCULAR COMPOSITIONS AND USE OF THE SAME FOR THE TREATMENT OF ALZHEIMER'S DISEASE” (MOUNT SINAI SCHOOL OF MEDICINE, priority 2006, published 2010).

The subject of one data set is Aβ1-40. Briefly: Aβ1-40 content in conditioned medium of primary cortico-hippocampal neuron cultures from Tg2576 mice (ELISA; primary and secondary dose-response screening). To be noted: for Ab1-40 (% of ctl) / activity at 100 µM: drug 100 μM; for reduced Aβ1-40: <85% of ctl; for activity at 100 µM: 24 h, read-out: Ab1-40 (% of ctl). Format: cell-based, mouse. The method, boiled down: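 Primary cortico-hippocampal neurons from embryonic Tg2576 mice were plated at 1.0×10^5 cells per well on poly-D-lysine-coated 96-well plates in Neurobasal with 2% B27, 0.5 mM L-glutamine and 1% penicillin-streptomycin. Cultures received drug in 1% DMSO, and Aβ1-40 in the conditioned medium was measured by BioSource ELISA 24 hours after treatment, relative to vehicle controls.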
(An ELISA detects its analyte on a solid surface through an enzyme-linked reagent.)

Data set [1] concerns Aβ1-42. Briefly: Aβ1-42 content in conditioned medium of primary cortico-hippocampal neuron cultures from Tg2576 mice (ELISA; primary and secondary dose-response screening). The class given is cell-based, mouse. To be noted: for Ab1-42 (% of ctl) / activity at 100 µM: drug 100 μM; for activity at 100 µM: Mus musculus, Neuron, 24 h, read-out: Ab1-42 (% of ctl). The method, boiled down: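 This screen tested cardiovascular drugs for Aβ-lowering in Tg2576 embryonic cortico-hippocampal neuron cultures plated at 1.0×10^5 cells per well in poly-D-lysine-coated 96-well plates with Neurobasal/B27 medium. Drugs at 100 μM were added directly to the medium in duplicate, with 1% DMSO alone as the control. Conditioned medium was then collected, and its Aβ1-42 level was quantified with BioSource ELISA kits.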

Data set [2] concerns Aβ1-42. Described as above. The class given is cell-based, mouse. To be noted: for EC50 / activity at 100 µM: Mus musculus; for EC50: Neuron; for activity at 100 µM: primary screening, drug 100 μM, Tg2576 neuron cultures, table sorted by Aβ1-42, read-out: Ab1-42 (% of ctl).
The subject of data set [3] is primary cortico-hippocampal neuron cultures. As to the kind of experiment: MTT in primary screening.
The test system is the same in data set [4]. As to the kind of experiment: lactate dehydrogenase (LDH) activity assay in parallel neuron cultures. To be noted: for LDH at E-5M % of change: drug at E-5M.
Setting [5] is: Primary Screening, table sorted by Aβ1-40.
Setting [6] is: primary screening, Tg2576 neuron cultures, table sorted by Aβ1-42.
The mark [7] stands for this setting: primary screening, table sorted by Aβ1-42.
Where [8] appears, read: Mus musculus, primary screening, Tg2576 neuron cultures, table sorted by Aβ1-42.

Where a name gives a salt, the structure may show the parent alone. Read-outs that look alike come from different tables or passages of the source.

As for `CC[C@@H](C)C(=O)O[C@H]1[C@H](O)[C@H]2[C@@H](CN3C[C@@H](C)CC[C@H]3[C@@]2(C)O)[C@@H]2C[C@]34O[C@]5(O)[C@@H](OC(=O)[C@](C)(O)[C@@H](C)O)CC[C@@]3(C)[C@@H]5[C@@H](OC(C)=O)[C@@H](OC(C)=O)[C@H]4[C@@]21O` (stereo in doubt) [Protoveratrine B], the “Ab1-40 (% of ctl)” value in the data set on Aβ1-40 (setting [5]) and with Aβ1-40 (setting [6]) was 61.8 % of ctl throughout. Besides, the “reduced Aβ1-40” value with Aβ1-40 (primary screening) is on record as “reduced Aβ1-40”. Moreover, the EC50 with Aβ1-40 (secondary dose-response screening 0.01-100 μM, 24 hours, read-out: EC50 (molar) Aβ1-40) is 6.73e-06 M. The “Ab1-42 (% of ctl)” value in the data set with Aβ1-42 [1] (setting [5]) and in the data set with Aβ1-42 [1] (setting [6]) was 93.3 % of ctl each time. Also, the “EC50 (molar) Aβ1-42” value with Aβ1-42 [2] (secondary dose-response screening 0.01-100 μM, 24 hours) is reported as “no fit”. For the same molecule, the “MTT (% of ctl)” value in data set [3] (setting [5]) and in data set [3] (setting [7]) was 58.5 % of ctl in each case. Further, the “LDH (% of ctl)” value in data set [4] (setting [5]) and in data set [4] (setting [7]) was 729.8 % of ctl each time. Besides, the “LDH at E-5M % of change” value in data set [4] is −2.5%.

For the molecule `N=C(N)NC(=O)c1nc(Cl)c(N)nc1N` [Amiloride Hydrochloride], the activity at 100 µM with Aβ1-40 (Mus musculus, Neuron, Primary Screening, table sorted by Aβ1-40) amounted to 77.5%; with Aβ1-40 (Mus musculus, Neuron, primary screening, Tg2576 neuron cultures, table sorted by Aβ1-42), 77.5%; with Aβ1-42 [1] (setting [5]) it was 47.1%; in the data set on Aβ1-42 [1] (setting [6]), 47.1%. Also, the EC50 with Aβ1-40 (Mus musculus, Neuron, Table IV, dose-response 0.01-100 μM, read-out: EC50 (M): Ab-lowering activity Abeta1-40) amounted to 8.67e-05 M; with Aβ1-40 (Mus musculus, Neuron, secondary dose-response screening 0.01-100 μM, 24 hours, read-out: EC50 (molar) Aβ1-40), 8.67e-05 M; in the data set on Aβ1-42 [2] (24 h, secondary dose-response screening 0.01-100 μM, 24 hours, read-out: EC50 (molar) Aβ1-42) it was 0.039 M; in the data set on Aβ1-42 [2] (Table IV, dose-response 0.01-100 μM, read-out: EC50 (M): Ab-lowering activity), 3.01e-05 M. In addition, in the data set on Aβ1-40 (primary screening), the “reduced Aβ1-40” value is “reduced Aβ1-40”. Besides, the “reducing Aβ1-42” value with Aβ1-42 [1] (primary screening, <85% of ctl) was “useful in reducing Aβ1-42”. Besides, the “MTT (% of ctl)” value in data set [3] (setting [5]) and in data set [3] (setting [7]) was 80.8 % of ctl in each case. Also, the “LDH (% of ctl)” value in data set [4] (setting [5]) and in data set [4] (setting [7]) was 104.7 % of ctl in each case. In data set [4] (Table IV), the “LDH (at 5F-5 M)” value was “no change”. The “LDH at E-5M % of change” value in data set [4] amounted to 6.4%.

`NCCCCCC(=O)O` [Aminocaproic Acid]: the activity at 100 µM with Aβ1-40 (setting [8]) is 124%; in the data set on Aβ1-42 [2] (24 h), 184%. Moreover, the “Ab1-40 (% of ctl)” value in the data set with Aβ1-40 (setting [5]) was 124.4 % of ctl. For the same molecule, in the data set on Aβ1-42 [1] (setting [5]), the “Ab1-42 (% of ctl)” value was 184.3 % of ctl. The “MTT (% of ctl)” value in data set [3] (setting [5]) and in data set [3] (setting [7]) was 80.3 % of ctl in each case. For the same molecule, the “LDH (% of ctl)” value in data set [4] (setting [5]) and in data set [4] (setting [7]) was 90.4 % of ctl each time.

Turning to `COc1cc2c3cc1Oc1c(OC)c(OC)cc4c1[C@@H](Cc1cccc(c1)Oc1ccc(c(O)c1)C[C@@H]3N(C)CC2)N(C)CC4` [Berbamine Hydrochloride], the activity at 100 µM in the data set on Aβ1-40 (setting [8]) is 119%; in the data set with Aβ1-42 [2] (24 h), 151%. In the data set with Aβ1-40 (setting [5]), the “Ab1-40 (% of ctl)” value is reported as 119.1 % of ctl. Moreover, the “Ab1-42 (% of ctl)” value with Aβ1-42 [1] (setting [5]) was 150.6 % of ctl. Also, the “MTT (% of ctl)” value in data set [3] (setting [5]) and in data set [3] (setting [7]) was 97.6 % of ctl in each case. The “LDH (% of ctl)” value in data set [4] (setting [5]) and in data set [4] (setting [7]) was 129.1 % of ctl throughout.

`COc1ccc(CCN(C)CCCC(C#N)(c2ccc(OC)c(OC)c2)C(C)C)cc1OC` (stereo not drawn) [Verapamil]: the activity at 100 µM with Aβ1-40 (setting [8]) amounted to 70.9%; in the data set with Aβ1-42 [2] (24 h) it was 101%. The “Ab1-40 (% of ctl)” value with Aβ1-40 (setting [5]) was 70.9 % of ctl. Also, the “reduced Aβ1-40” value with Aβ1-40 (primary screening) is “reduced Aβ1-40”. Further, in the data set with Aβ1-42 [1] (setting [5]), the “Ab1-42 (% of ctl)” value is listed as 101.1 % of ctl. In addition, the “LDH (% of ctl)” value in data set [4] (setting [5]) and in data set [4] (setting [7]) was 92.5 % of ctl throughout.
